Results: paper PMC4569708, “Synergistic activation of human pregnane X receptor by binary cocktails of pharmaceutical and environmental compounds” (Nature Communications, 2015)

T1: PXR (Homo sapiens, UniProt O75469)
T1 sequence (O75469 107-434): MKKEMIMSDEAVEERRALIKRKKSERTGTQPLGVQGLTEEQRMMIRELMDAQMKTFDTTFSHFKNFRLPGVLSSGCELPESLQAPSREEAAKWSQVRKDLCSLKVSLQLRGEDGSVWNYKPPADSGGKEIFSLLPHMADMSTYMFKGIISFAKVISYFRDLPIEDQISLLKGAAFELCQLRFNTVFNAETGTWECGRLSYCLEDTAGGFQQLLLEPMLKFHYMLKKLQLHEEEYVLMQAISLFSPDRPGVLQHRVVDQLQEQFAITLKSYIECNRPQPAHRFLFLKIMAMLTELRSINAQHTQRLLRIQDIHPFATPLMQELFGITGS

T2: PXR LBD (Homo sapiens, UniProt O75469)
T2 construct: Purified PXR(130-434)-SRC-1 was dialysed overnight; His6 (N); made in house; host or cells: E. coli BL21(DE3)
T2 sequence (O75469 with tags, fused parts or gaps limits assumed): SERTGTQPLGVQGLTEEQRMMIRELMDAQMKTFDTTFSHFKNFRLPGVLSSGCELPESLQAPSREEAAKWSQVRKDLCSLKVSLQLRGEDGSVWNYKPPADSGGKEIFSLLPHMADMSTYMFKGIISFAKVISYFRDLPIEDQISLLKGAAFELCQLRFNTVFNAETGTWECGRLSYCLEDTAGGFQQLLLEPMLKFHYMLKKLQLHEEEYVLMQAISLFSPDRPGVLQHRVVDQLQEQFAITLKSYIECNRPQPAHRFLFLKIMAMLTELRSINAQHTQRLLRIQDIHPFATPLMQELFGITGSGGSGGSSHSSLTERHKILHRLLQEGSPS

T3: fluorescein-labelled NR interaction domain (NID) of SRC-1 (residues 570-780) (UniProt Q15788 570-780, fluorescein at the C-terminus (cys-fluor added on intein cleavage))
T3 chain: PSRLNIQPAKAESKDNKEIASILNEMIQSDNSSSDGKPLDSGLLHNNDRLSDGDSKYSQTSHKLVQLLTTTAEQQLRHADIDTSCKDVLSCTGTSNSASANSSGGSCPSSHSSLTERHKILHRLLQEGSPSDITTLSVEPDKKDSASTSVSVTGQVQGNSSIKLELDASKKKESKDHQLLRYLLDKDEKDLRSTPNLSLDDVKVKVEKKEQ


How the values were obtained:
PXR [1] = biological target: T1, PXR; assay: Medium-throughput screening, HG5LN GAL4-PXR-LBD reporter cell line (HeLa); settings: HG5LN GAL4-PXR reporter cells; 3 µM SR12813 = 100% activation; determined prior to the screening
Excerpt: Using medium-throughput ligand screening and a mammalian (HeLa) cell-based activation assay (HG5LN GAL4-PXR-LBD reporter cell line)[14][15], we monitored the agonistic potential of 40 chemicals either alone or in binary mixtures (Supplementary Table 1). […] We next examined the effect of TNC, EE2, and their combination in human liver (HepG2) and colon (LS174T) carcinoma cell lines containing the full-length PXR and the CYP3A4-XREM luciferase reporter plasmids.
LS174T stable human PXR transfectant (LS-PXR2) and the corresponding control cells (LS-CTRL), HEPG2-PXR and HG5LN GAL4-PXR reporter cell lines were previously described. […] HEPG2-PXR was obtained after stable transfection of the same PXR expressing plasmid and the XREM-CYP3A4 pGL3b reporter plasmid. […] Finally, LS174T-PXR reporter cell line was established by stable transfection of the CYP3A4-luciferase-hygromycine plasmid in the LS-PXR2 cell line. All cell lines were grown in DMEM medium (Invitrogen) supplemented with 10% fetal calf serum, L-glutamine, and antibiotics (Invitrogen).
HG5LN GAL4-PXR reporter cell lines (100 μl) were seeded at a density of 25,000 cells per well in 96-well white opaque tissue culture plates (Greiner CellStar). […] Then the ligand to be tested in combination with the different ligands was added (50 μl). Cells were incubated at 37 °C for 16 h. At the end of the incubation period, culture medium was replaced with medium containing 3.10^−4 M luciferin. Luciferase activity was measured for 2 s in intact living cells using a plate reader (PerkinElmer Luminometer).
Supplementary Table 1 | Compounds used for screening
#For each ligand, the concentration used was determined prior to the screening experiment. It represents the dose at which the
synthetized in the laboratory4. **Compounds purchased from Tocris Biosciences. ***Compounds purchased by Sigma
Aldrich.****Gift from Sanofi Aventis. All compound stock solutions were prepared at 10 mM in DMSO.

PXR [2] = biological target: T1, PXR; assay: Transactivation assay (dose-response), HG5LN GAL4-PXR-LBD reporter cells; settings: summary of cell-based assays
Description: Compounds to be tested were added 24 h later, and cells were incubated at 37 °C for 16 h. […] EC50 values were measured using GraphPad Prism (GraphPad Software Inc.).

PXR LBD = biological target: T2, PXR LBD; assay: Non-denaturing ESI-MS of ligand binding
Description: Figure 4 Simultaneous binding of EE2 and TNC to PXR. Mass spectrometry analysis. Non-denaturing ESI-MS was used to characterize PXR LBD (10 μM) in (a) the unliganded form or in the presence of (b) EE2 (20 μM), (c) TNC (20 μM), or (d) a mixture of EE2 (20 μM) and TNC (20 μM). *, acetate adducts; $, fortuitous binders 254-324 Da; , fortuitous binder 254 Da; #, non-specific EE2 adducts. TEXT PRINTED IN THE PICTURE: (b) no label printed: 296.4 Da | (c) no label printed: 444.2 Da | (d) no label printed: 740.6 Da DOUBTS OF THE COPYIST ABOUT THIS PICTURE: Panels b, c and d: the drawn structures have no label of their own. The masses in brackets are printed with no measure word and are taken as molecular masses. / Panel d: 740.6 Da is printed under two drawn structures joined by '+', so it belongs to the pair, not to a single substance. / The peak labels of the mass spectra were left out as spectrum annotations of the protein and its complexes: PXR 38,212.5 Da, Theoretical mass 38,217.7 Da, Δ 297 Da, Δ 445 Da and Δ 740 Da.
Mass spectrometry experiments were carried out on an electrospray time-of-flight mass spectrometer (LCT, Waters) equipped with an automated chip-based nanoESI device (Triversa Nanomate, Advion Biosciences). External calibration was done in the positive ion mode over the mass range m/z 500–5,000 using the multiply charged ions produced by 0.5 μM horse heart myoglobin solution diluted in water/acetonitrile 50/50 mixture acidified with 0.5% (v/v) formic acid. Purified PXR(130-434)-SRC1 was buffer exchanged against 50 mM ammonium acetate (NH4Ac), pH 8.0 using NAP5 desalting columns (illustra NAP-5 Columns, GE Healthcare Life Sciences). Protein concentration was determined spectrophotometrically (ɛ280 nm=26,210 l mol^−1 cm^−1). […] Protein concentration was set to 10 μM and different compound concentrations ranging from 20 to 80 μM were tested. Incubations lasted 5 min at 18 °C. Mass spectra were recorded using low cone voltage (Vc, 20 V) and elevated interface pressure (Pi, 5 mbar).

[3] = biological target: T3, fluorescein-labelled NR interaction …; assay: FP; TNC+EE2
[4] = biological target: T3, fluorescein-labelled NR interaction …; assay: FP; TNC
[5] = biological target: T3, fluorescein-labelled NR interaction …; assay: FP; EE2
[6] = biological target: T3, fluorescein-labelled NR interaction …; assay: FP; SR12813
[7] = biological target: T3, fluorescein-labelled NR interaction …; assay: FP; apo (no ligand)

| Molecule | Concentration: dose at which the compound alone induces ≈30% of the luciferase expression obtained with 3 µM SR12813 (PXR [1]) [nM] | further results |
| --- | --- | --- |
| CC1(C)C(C=C(Cl)Cl)C1C(=O)OC(C#N)c1cccc(Oc2ccccc2)c1 (stereo not shown) [Cypermethrine] | 3000 | – |
| Clc1ccc(C(c2ccc(Cl)cc2)C(Cl)(Cl)Cl)cc1 [4,4’DDT] | 3000 | – |
| CC(=O)O[C@H]1C(=O)[C@@]2(C)[C@H]([C@H](OC(=O)c3ccccc3)[C@]3(O)C[C@H](OC(=O)[C@H](O)[C@@H](NC(=O)c4ccccc4)c4ccccc4)C(C)=C1C3(C)C)[C@]1(OC(C)=O)CO[C@@H]1C[C@@H]2O [TAXOL, reference compound] | 30 | – |
| Cc1ccc(/C=C2/C(=O)C3(C)CCC2C3(C)C)cc1 (stereo not shown) [4-methylbenzylidene camphor] | 1000 | – |
| -zearalanol | 1000 | – |
| CO[C@H]1/C=C/O[C@@]2(C)Oc3c(C)c(O)c4c(O)c(c(/C=N/N5CCN(C)CC5)c(O)c4c3C2=O)NC(=O)/C(C)=C\C=C\[C@H](C)[C@H](O)[C@@H](C)[C@@H](O)[C@@H](C)[C@H](OC(C)=O)[C@@H]1C [Rifampicin, reference compound] | 300 | – |
| Cc1cc(C(C)(C)C)ccc1O [4-tert-butyl-2-methylphenol] | 1000 | – |
| N#Cc1nn(-c2c(Cl)cc(C(F)(F)F)cc2Cl)c(N)c1S(=O)(=O)C(F)(F)F [Fipronil sulfone] | 3000 | – |
| Clc1ccc(C(c2ccccc2Cl)C(Cl)(Cl)Cl)cc1 (stereo not shown) [2,4’DDT] | 3000 | – |
| C[C@H]1CCCC(=O)CCC/C=C/c2cc(O)cc(O)c2C(=O)O1 [Zearalenone] | 1000 | – |
| CCCCOC(=O)c1ccccc1C(=O)OCc1ccccc1 [Benzyl butyl phthalate] | 1000 | – |
| C#C[C@]1(O)CC[C@H]2[C@@H]3CCc4cc(O)ccc4[C@H]3CC[C@@]21C [EE2, 17α-ethinylestradiol, reference compound] | – | PXR agonism, cell-based assays as a whole (PXR [2]): poor PXR agonists; Complex detected (PXR LBD; PXR 10 μM, 2 molar equivalent excess of compound (20 μM)): ~70%; Range of affinity for PXR (PXR LBD; native ESI-MS): low micromolar range |
| Clc1cnc(Oc2ccc(Oc3ncc(Cl)cc3Cl)cc2)c(Cl)c1 [TCPOBOP, reference compound] | 1000 | – |
| Clc1ccccc1C(c1ccccc1)(c1ccccc1)n1ccnc1 [Clotrimazol, reference compound] | 300 | – |
| -zearalenol | 300 | – |
| PXR/RXR LBD heterodimer (complex) chain 1: SERTGTQPLGVQGLTEEQRMMIRELMDAQMKTFDTTFSHFKNFRLPGVLSSGCELPESLQAPSREEAAKWSQVRKDLCSLKVSLQLRGEDGSVWNYKPPADSGGKEIFSLLPHMADMSTYMFKGIISFAKVISYFRDLPIEDQISLLKGAAFELCQLRFNTVFNAETGTWECGRLSYCLEDTAGGFQQLLLEPMLKFHYMLKKLQLHEEEYVLMQAISLFSPDRPGVLQHRVVDQLQEQFAITLKSYIECNRPQPAHRFLFLKIMAMLTELRSINAQHTQRLLRIQDIHPFATPLMQELFGITGS chain 2: TSSANEDMPVERILEAELAVEPKTETYVEANMGLNPSSPNDPVTNICQAADKQLFTLVEWAKRIPHFSELPLDDQVILLRAGWNELLIASFSHRSIAVKDGILLATGLHVHRNSAHSAGVGAIFDRVLTELVSKMRDMQMDKTELGCLRAIVLFNPDSKGLSNPAEVEALREKVYASLEAYCKHKYPEQPGRFAKLLLRLPALRSIGLKCLEHLFFFKLIGDTPIDTFLMEMLEAPHQMT | – | Kd [3]: 84.5 nM; Kd [4]: 450 nM; Kd [5]: 272 nM; Kd [6]: 93 nM; Kd [7]: 368 nM |
